Publication PMC10650714, “Double Attack to Oxidative Stress in Neurodegenerative Disorders: MAO-B and Nrf2 as Elected Targets” (Molecules, 2023)
Entries after “also recorded” stand apart in the source; their conditions may differ.

Experiments:
[1] = tested on: ROS production in HepG2 cells; assay: Intracellular ROS generation rate (DCF-DA); format: cell-based, human; conditions: 5 µM, 30 min; for ROS generation rate (oxidation rate of DCF): both in the presence and absence of antimycin A (10 µM); for effect on antimycin A-induced ROS: antimycin A 10 µM
Description: Thus, on the basis of the hMAO-B inhibitory potency and on the Nrf2 nuclear translocation results, the most promising compounds 2 and 3 were chosen for the evaluation of their antioxidant activity in the human hepatic HepG2 cells, a valuable cellular system to assess antioxidant properties of the compounds [43, 44]. CAPE and pioglitazone were also tested as reference compounds. HepG2 cells were pre-loaded with dichlorofluorescein diacetate (DCF-DA), a fluorescent probe to detect ROS generation. […] Immediately, antimycin A (10 µM), an inhibitor of the complex III of the mitochondrial electron transport chain, was also added as an ROS inducer. The oxidation rate of DCF, that is, the generation rate of ROS, was detected for 30 min, and for each sample, the corresponding control was also run.
HepG2 cells (human hepatocellular carcinoma) were purchased from the American Type Culture Collection (ATCC HB-8065). Cells were grown in MEM (M0894, Merck Life Sciences S.r.l., Milan, Italy) supplemented with 2.2 g/L NaHCO3 (S5761, Merck Life Sciences S.r.l., Milan, Italy), 100 U/mL penicillin, 100 μg/mL streptomycin and 0.25 μg/mL amphotericin B (A5955, Merck Life Sciences S.r.l., Milan, Italy) and 10% foetal calf serum (F7524, Merck Life Sciences S.r.l., Milan, Italy). Cells were cultured at 37 °C in a humidified atmosphere incubator containing 5% carbon dioxide in air.
The intracellular production of ROS was detected via a fluorometric method using 2′,7′-dichlorofluorescein diacetate (D6883, Merck Life Sciences S.r.l., Milan, Italy) as probe. HepG2 cells (6 × 10^3/well) were seeded into a 96-well culture plate in 200 µL of a complete growth medium and incubated for 48 h in standard conditions. The medium was then removed, and cells were washed with 5 mM of PBS–glucose. Then, cells were loaded with 10 μM of 2′,7′-dichlorofluorescein diacetate in 5 mM of PBS–glucose at 37 °C in the dark for 20 min, washed with 5 mM of PBS–glucose, treated with the test compounds at indicated concentrations in 5 mM of PBS–glucose and then analysed. Fluorescence intensity was recorded for 30 min at λemx = 485 nm and λem = 527 nm, using a Victor X3 Multilabel plate reader (Perkin Elmer). The rate of ROS generation was calculated relative to untreated cells (controls) after subtraction of autofluorescence value. Results were presented as the mean values of at least three independent experiments performed with six replicates.

[2] = tested on: Nrf2 nuclear translocation in SH-SY5Y cells; assay: Nrf2 nuclear translocation (Western blot of nuclear extracts); format: cell-based, human
Text: In physiological conditions, the repressor Keap1 traps Nrf2 at the cytosolic level, preventing the activation of Nrf2 pathway. The disruption of Keap1–Nrf2 interaction allows for Nrf2 nuclear translocation, thus resulting in the transcriptional activation of its target cytoprotective genes. […] We and others have previously developed several compounds bearing caffeic and ferulic fragments able to activate Nrf2 in terms of the up-regulation of Nrf2 expression, translocation into the nucleus and induction of the Nrf2-dependent defensive genes, with (pro)electrophilic features emerging as key players. Herein, to analyse the effect of the new molecules on the Nrf2 downstream cascade, the ability of compounds 1–5 to increase Nrf2 nuclear translocation was preliminary evaluated as a pivotal step in Nrf2 signalling activation (Figure 6). Based on MAO-B inhibitory potency and cell toxicity assay, compounds were studied in SH-SY5Y human neuroblastoma cells at the concentration of 5 μM. Given the high structural analogy with our derivatives, we selected the well-known Nrf2 inducer CAPE [37, 38] as the reference compound, and verified its ability to induce Nrf2 nuclear translocation at different concentrations, ranging from 5 µM to 50 µM in our experimental model (Figure S6). Nrf2 nuclear content was assessed via Western blot analysis. […] Consistently, data from literature highlight discrepancies about pioglitazone-mediated Nrf2 activation, indicating its ability to activate Nrf2 in longer timeframes and different in vitro and in vivo experimental conditions. […] The preliminary docking performed on human Keap-1 confirms the excellent positioning of compound 2 within the BTB domain pocket, where cysteine 151 is located (see Figure S5). […] Particularly, all these new molecules hold the characteristic (pro)electrophilic fragments, which however, in this case, resulted to be insufficient to activate Nrf2, as reported for other ferulic and caffeic derivatives. In this regard, optimal target interaction might play a major role, but further biological investigations are needed to fully clarify the mechanism of Nrf2 activation and the effect on the downstream expression of cytoprotective genes.
SH-SY5Y cells (5 × 106) were seeded in […] dishes and treated for 3 h with 5 μM compounds; afterward, the medium was removed, and cells were washed twice with ice-cold PBS. Cells were subsequently homogenized 15 times using a glass−glass Dounce homogenizer in 0.32 M sucrose, buffered with 20 mM Tris- HCl (pH 7.4), containing 2 mM EDTA, 0.5 mM EGTA, 50 mM β-mercaptoethanol and 20 μg/mL leupeptin, apotrinin and pepstatin. The homogenate was centrifuged at 300× g for 5 min to obtain the nuclear fraction. An aliquot of the nuclear fraction was used for protein assay via the Bradford method, whereas the remaining was boiled for 5 min after dilution with sample buffer and subjected to polyacrylamide gel electrophoresis and immunoblotting, as described.

Compound	ROS generation rate (oxidation rate of DCF) [1]	effect on antimycin A-induced ROS [1]	Nrf2 nuclear translocation ([2]; 5 µM and 20 µM, 3 h)	Nrf2 nuclear translocation ([2]; until concentrations higher than 50 µM)	Nrf2 nuclear translocation ([2]; 5 μM, 3 h)
O=C(/C=C/c1ccc(O)c(O)c1)OCCc1ccccc1 [CAPE, caffeic acid phenethyl ester, reference compound]	strongly reducing the oxidation rate of DCF	almost abolish the effect of antimycin A stimulus	induced Nrf2 nuclear translocation	–	–
CCc1ccc(CCOc2ccc(CC3SC(=O)NC3=O)cc2)nc1 (centres unmarked) [Pioglitazone, reference compound]	did not show any effect on the ROS generation rate	–	–	not able to induce Nrf2 nuclear translocations	–
O=C(/C=C/c1ccc(O)c(O)c1)Oc1ccc(CC2SC(=O)NC2=O)cc1 (centres unmarked) [Compound 2, 4-((2,4-Dioxothiazolidin-5-yl)methyl)phenyl (E)-3-(3,4-Dihydroxyphenyl)acrylate]	highest antioxidant potency; also recorded: significantly reduced cellular ROS content	almost abolish the effect of antimycin A stimulus	–	–	most active; also recorded: strongly induced Nrf2 translocation into the nucleus
